From US9994564B2, “Myosin II ATPase inhibitor compounds” (priority 2014, dated 2018)
Several values for one entry are separate records, joined by “and”; a condition that tells them apart may be missing. Equal entries are not always repeated.

What was measured:
[1] = tested on: rat bladder smooth muscle strip (detrusor); assay: Relaxation of rat bladder strips pre-contracted with 60 mM KCl or 1 μM carbachol (organ bath); type: cell-based; conditions: for bladder relaxation in vitro, enantiomer compared with racemic blebbistatin mixture: in vitro studies; for relaxation of KCl and CC evoked detrusor contraction: 60 mM KCl or 1 μM CC pre-contraction, maximal pre-contraction = 100%
Procedure: (§1) Experimental materials and methods: All chemical were from Sigma (St. Louis, USA) except (±) blebbistatin (racemic blebbistatin) was from Tocris (Ellisville, Mo.). […] Rat bladder body and aorta were obtained from 17 (275-300 gram) adult male Sprague-Dawley (SD) rats (Charles River; Raleigh, N.C.). All animal studies were approved by the Animal Institute Committee of the Albert Einstein College of Medicine.
In vitro organ bath studies: The in vitro contractility studies were performed as previously described by Zhang X, Kuppam D, Aydin M, Melman A, DiSanto M. “In vitro and in vivo relaxation of corpus cavernosum smooth muscle by the selective myosin II inhibitor, blebbistatin.” J Sex Med 2009; 6:2661-71, Sandhu K S, Chua R G, Zhang X, et al. “Regional heterogeneity in expression of the sphingosine-1-phosphate pathway in the female rat lower urinary tract”; Am J Obstet Gynecol 2009; 200:576-7; Chua R G, Calenda G, Zhang X, et al. “Testosterone regulates erectile function and Vcsal expression in the corpora of rats”; Mol Cell Endocrinol 2009; 303:67-73. Bladder strips were mounted longitudinally and aortic rings horizontally in a 5 ml organ bath—Multi-Myograph Model 810MS (bladder) or Model 610M (aorta) (Danish Myo Technology; Aarhus, Denmark). The myograph was connected in line to a PowerLab 4/30 Data Acquisition System (ADInstruments; Colorado Springs, Colo.) and in turn to a Dual-Core processor Pentium computer for real-time monitoring of physiological force. The smooth muscle strips were equilibrated at least 1 hour in Krebs-Henseleit (Krebs) buffer at 37° C. with continuous bubbling of 95% O2 and 5% CO2 and buffer was changed every 15 minutes (min). Strips were continuously adjusted to resting tension (0.5 g for rat bladder and 1 g for human bladder (Yamamoto M, Harm S C, Grasser W A, Thiede M A. “Parathyroid hormone-related protein in the rat urinary bladder: a smooth muscle relaxant produced locally in response to mechanical stretch.” Proc Natl Acad Sci USA 1992; 89:5326-30. After equilibration, rat detrusor was contracted with 60 mM KCl and the force induced by cumulative concentrations (10-5-10-1 M) of carbachol (CC) or electrical field stimulation (EFS) at varying frequencies of 2-32 Hz, pulse duration 1.5 ms, train 5 s, and 80 V, was normalized to that KCl response. Next, all strips were pre-contracted with 60 mM KCl, or 1 μM CC (rat bladder), or 20 nM endothelin-1 (ET-1) (human bladder) and allowed to reach stable tension and then the relaxant effects of increasing doses of blebbistatin were evaluated. For rat detrusor, after pre-incubation with blebbistatin (10 μM) for 30 min, its inhibitory effect on CC (1 μM) induced contractility or aforementioned EFS mediated contractility was also tested. Additionally, the influence of blebbistatin (10 μM) on rat detrusor spontaneous activity and basal tone was evaluated.

[2] = target: Porcine Cardiac Muscle Myosin II ATPase (Sus scrofa, UniProt P79293); conditions: single concentration of 100 micromolar; Toth table IV; cited from earlier work
[3] = tested on: Non-muscle Myosin ATPases; conditions: single concentration of 100 micromolar; Toth table IV; cited from earlier work
[4] = tested on: rat bladder smooth muscle strip (detrusor); assay: Pre-incubation with blebbistatin: carbachol-induced rat detrusor contraction; type: cell-based; conditions: for attenuation of carbachol (CC) responsiveness: pre-incubation 10 μM for 30 min, 1 μM CC
Procedure: as §1
(§2) In vitro organ bath studies: The in vitro contractility studies were performed as previously described by Zhang X, Kuppam D, Aydin M, Melman A, DiSanto M. “In vitro and in vivo relaxation of corpus cavernosum smooth muscle by the selective myosin II inhibitor, blebbistatin.” J Sex Med 2009; 6:2661-71, Sandhu K S, Chua R G, Zhang X, et al. “Regional heterogeneity in expression of the sphingosine-1-phosphate pathway in the female rat lower urinary tract”; Am J Obstet Gynecol 2009; 200:576-7; Chua R G, Calenda G, Zhang X, et al. “Testosterone regulates erectile function and Vcsal expression in the corpora of rats”; Mol Cell Endocrinol 2009; 303:67-73. Bladder strips were mounted longitudinally and aortic rings horizontally in a 5 ml organ bath—Multi-Myograph Model 810MS (bladder) or Model 610M (aorta) (Danish Myo Technology; Aarhus, Denmark). The myograph was connected in line to a PowerLab 4/30 Data Acquisition System (ADInstruments; Colorado Springs, Colo.) and in turn to a Dual-Core processor Pentium computer for real-time monitoring of physiological force. The smooth muscle strips were equilibrated at least 1 hour in Krebs-Henseleit (Krebs) buffer at 37° C. with continuous bubbling of 95% O2 and 5% CO2 and buffer was changed every 15 minutes (min). Strips were continuously adjusted to resting tension (0.5 g for rat bladder and 1 g for human bladder (Yamamoto M, Harm S C, Grasser W A, Thiede M A. “Parathyroid hormone-related protein in the rat urinary bladder: a smooth muscle relaxant produced locally in response to mechanical stretch.” Proc Natl Acad Sci USA 1992; 89:5326-30. After equilibration, rat detrusor was contracted with 60 mM KCl and the force induced by cumulative concentrations (10-5-10-1 M) of carbachol (CC) or electrical field stimulation (EFS) at varying frequencies of 2-32 Hz, pulse duration 1.5 ms, train 5 s, and 80 V, was normalized to that KCl response. Next, all strips were pre-contracted with 60 mM KCl, or 1 μM CC (rat bladder), or 20 nM endothelin-1 (ET-1) (human bladder) and allowed to reach stable tension and then the relaxant effects of increasing doses of blebbistatin were evaluated. […] Additionally, the influence of blebbistatin (10 μM) on rat detrusor spontaneous activity and basal tone was evaluated.

[5] = tested on: rat bladder smooth muscle strip (detrusor); assay: Pre-incubation with blebbistatin: electrical field stimulation-induced rat bladder contraction; type: cell-based; conditions: pre-incubation 10 μM for 30 min, 32 Hz
Procedure: as §1
In vitro organ bath studies: The in vitro contractility studies were performed as previously described by Zhang X, Kuppam D, Aydin M, Melman A, DiSanto M. “In vitro and in vivo relaxation of corpus cavernosum smooth muscle by the selective myosin II inhibitor, blebbistatin.” J Sex Med 2009; 6:2661-71, Sandhu K S, Chua R G, Zhang X, et al. “Regional heterogeneity in expression of the sphingosine-1-phosphate pathway in the female rat lower urinary tract”; Am J Obstet Gynecol 2009; 200:576-7; Chua R G, Calenda G, Zhang X, et al. “Testosterone regulates erectile function and Vcsal expression in the corpora of rats”; Mol Cell Endocrinol 2009; 303:67-73. […] Next, all strips were pre-contracted with 60 mM KCl, or 1 μM CC (rat bladder), or 20 nM endothelin-1 (ET-1) (human bladder) and allowed to reach stable tension and then the relaxant effects of increasing doses of blebbistatin were evaluated. […]

[6] = tested on: human bladder smooth muscle strip; assay: Relaxation of human bladder (base) strips pre-contracted with 20 nM endothelin-1; type: cell-based; conditions: for relaxation of human bladder pre-contracted with endothelin-1: 20 nM ET-1; for relaxation/block of endothelin-1 induced human bladder contraction (in words): dose-dependent
Procedure: as §1, §2

rat bladder strips = assay: Spontaneous contractions and basal tone of rat bladder strips; type: cell-based
Procedure: as §1, §2

bladder of awake rat = assay: Awake rat cystometry (urodynamics) after intravesical blebbistatin; type: in vivo
Procedure: Cystometric evaluation of bladder function was performed as previously described on a separate set of 5 rats. See Malmgren A, Andersson P O, Uvelius B. “Bladder function in rats with short- and long-term diabetes; effects of age and muscarinic blockade” J Urol 1989; 142:1608-14; Melman A, Zotova E, Kim M, et al. “Longitudinal studies of time-dependent changes in both bladder and erectile function after streptozotocin-induced diabetes in Fischer 344 male rats” BJU Int 2009, 104:1292-300; Suadicani S O, Urban-Maldonado M, Tar M T, Melman A, Spray D C. “Effects of ageing and streptozotocin-induced diabetes on connexin43 and P2 purinoceptor expression in the rat corpora cavernosa and urinary bladder” BJU Int 2009; 103:1686-93. Under anesthesia, a PE 50 catheter with a cuff was surgically inserted into the bladder dome and exited through an orifice made in the back of the animal. […] The bladder catheter was connected to a 2-way valve that is, in turn connected to a pressure transducer as well as an infusion pump (model PHD 2000, Harvard Instruments; MA, USA). Rat bladder was infused with vehicle for 30 min and then cystometry was performed. After that, the same rat was treated with 250 nmols blebbistatin for the same period and cystometry was similarly repeated. One rat had bladder over-activity possibly due to post-surgical infection and thus blebbistatin was kept in the bladder for only about 5 min. The rate of infusion of room temperature saline was set at 10 ml/h. Bladder activity was continuously recorded after the first micturition, and subsequently at least 2 h of data were recorded from each rat. Statistical analysis: Results are expressed as mean±SEM for n experiments. Statistical analysis was performed using either the Student's t-test (when two sample treatments were being compared) or using ANOVA when multiple means were compared. p<0.05 was considered significant.
Bladder function was evaluated using the following urodynamic criteria: bladder capacity: (BC=volume of infused saline discharged at micturition); micturition volume (MV=the volume of urine discharged during micturition); residual volume (RV=volume of infused saline minus micturition volume); basal pressure (BP=the lowest average bladder pressure recorded during cystometry); micturition pressure (MP=peak bladder pressure during micturition); Bcom=bladder compliance; MF=micturition frequency; and the * indicates <0.05 vs vehicle.

[7] = target: Myosin II ATPase in rabbit striated skeletal muscle; conditions: in vitro, read-out: IC50, inhibition of Myosin II ATPase; cited from earlier work
[8] = target: Myosin II ATPase in pig cardiac muscle (Sus scrofa, UniProt P79293); conditions: in vitro, read-out: IC50, inhibition of Myosin II ATPase; cited from earlier work
[9] = target: Smooth Muscle Myosin II ATPase (turkey smooth muscle); conditions: in vitro, read-out: IC50, inhibition of Smooth Muscle Myosin II ATPase; cited from earlier work
[10] = target: Non-muscle Myosin IIA ATPase (Homo sapiens, UniProt P35579); conditions: read-out: IC50, inhibition of Non-muscle Myosin IIA ATPase; cited from earlier work
[11] = tested on: adult mouse bladder smooth muscle; conditions: 10 uM; tissue depolarized using potassium chloride; cited from earlier work
newborn mouse bladder = conditions: 10 uM; cited from earlier work
[12] = with blebbistatin (10 μM), n = 15 strips from 6 rats
[13] = awake rats, intravesical 250 nmols blebbistatin 30 min, n = 5

Sequence of Myosin II ATPase in pig cardiac muscle (P79293 whole entry): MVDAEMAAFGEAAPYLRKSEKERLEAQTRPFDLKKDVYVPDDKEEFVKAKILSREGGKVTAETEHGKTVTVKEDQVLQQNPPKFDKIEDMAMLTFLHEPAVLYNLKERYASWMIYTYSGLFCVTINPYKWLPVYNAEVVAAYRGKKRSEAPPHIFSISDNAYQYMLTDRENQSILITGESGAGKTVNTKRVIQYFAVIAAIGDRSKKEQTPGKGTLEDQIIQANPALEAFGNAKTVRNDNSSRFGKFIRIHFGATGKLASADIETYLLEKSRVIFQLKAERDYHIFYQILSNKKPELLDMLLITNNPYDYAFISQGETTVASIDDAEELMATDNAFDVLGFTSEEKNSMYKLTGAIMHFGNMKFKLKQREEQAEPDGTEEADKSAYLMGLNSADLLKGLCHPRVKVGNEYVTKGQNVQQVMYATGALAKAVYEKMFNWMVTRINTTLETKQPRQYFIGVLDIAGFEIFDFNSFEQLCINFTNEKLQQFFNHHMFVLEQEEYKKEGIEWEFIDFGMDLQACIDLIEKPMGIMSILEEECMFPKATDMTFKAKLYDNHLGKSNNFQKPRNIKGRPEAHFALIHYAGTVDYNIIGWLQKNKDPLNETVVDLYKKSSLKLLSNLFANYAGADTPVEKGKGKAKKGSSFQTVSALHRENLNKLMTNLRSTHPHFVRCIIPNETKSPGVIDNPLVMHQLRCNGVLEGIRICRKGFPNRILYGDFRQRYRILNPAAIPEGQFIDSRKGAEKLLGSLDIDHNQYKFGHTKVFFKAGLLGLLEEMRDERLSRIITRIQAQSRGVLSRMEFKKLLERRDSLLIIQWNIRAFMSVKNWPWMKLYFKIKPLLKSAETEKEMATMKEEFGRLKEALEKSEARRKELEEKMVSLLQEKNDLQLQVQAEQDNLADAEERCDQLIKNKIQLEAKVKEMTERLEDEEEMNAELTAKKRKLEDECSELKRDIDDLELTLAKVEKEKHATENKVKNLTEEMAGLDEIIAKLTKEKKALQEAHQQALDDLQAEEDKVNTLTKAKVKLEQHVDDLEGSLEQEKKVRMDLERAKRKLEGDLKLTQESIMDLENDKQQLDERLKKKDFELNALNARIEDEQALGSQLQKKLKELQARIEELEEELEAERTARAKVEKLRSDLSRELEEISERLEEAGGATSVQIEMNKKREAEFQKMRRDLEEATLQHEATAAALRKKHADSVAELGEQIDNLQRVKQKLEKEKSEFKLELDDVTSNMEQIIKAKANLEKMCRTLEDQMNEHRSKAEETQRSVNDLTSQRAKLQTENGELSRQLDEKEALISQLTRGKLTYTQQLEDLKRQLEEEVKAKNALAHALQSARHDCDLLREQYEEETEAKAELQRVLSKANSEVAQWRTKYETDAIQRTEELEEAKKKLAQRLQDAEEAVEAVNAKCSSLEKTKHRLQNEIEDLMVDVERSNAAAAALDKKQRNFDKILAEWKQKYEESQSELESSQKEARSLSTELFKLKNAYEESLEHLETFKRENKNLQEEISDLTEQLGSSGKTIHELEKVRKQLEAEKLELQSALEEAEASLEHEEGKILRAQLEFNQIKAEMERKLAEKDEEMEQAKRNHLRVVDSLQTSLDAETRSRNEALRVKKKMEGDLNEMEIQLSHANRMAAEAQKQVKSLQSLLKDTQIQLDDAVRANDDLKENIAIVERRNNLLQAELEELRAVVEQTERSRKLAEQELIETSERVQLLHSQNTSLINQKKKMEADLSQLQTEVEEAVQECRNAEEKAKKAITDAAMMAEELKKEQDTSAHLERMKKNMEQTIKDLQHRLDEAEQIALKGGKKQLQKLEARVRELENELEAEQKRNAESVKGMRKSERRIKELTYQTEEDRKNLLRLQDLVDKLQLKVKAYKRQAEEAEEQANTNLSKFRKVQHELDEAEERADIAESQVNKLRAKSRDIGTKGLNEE
Sequence of Porcine Cardiac Muscle Myosin II ATPase (P79293 whole entry): as above
Sequence of Non-muscle Myosin IIA ATPase (P35579 whole entry): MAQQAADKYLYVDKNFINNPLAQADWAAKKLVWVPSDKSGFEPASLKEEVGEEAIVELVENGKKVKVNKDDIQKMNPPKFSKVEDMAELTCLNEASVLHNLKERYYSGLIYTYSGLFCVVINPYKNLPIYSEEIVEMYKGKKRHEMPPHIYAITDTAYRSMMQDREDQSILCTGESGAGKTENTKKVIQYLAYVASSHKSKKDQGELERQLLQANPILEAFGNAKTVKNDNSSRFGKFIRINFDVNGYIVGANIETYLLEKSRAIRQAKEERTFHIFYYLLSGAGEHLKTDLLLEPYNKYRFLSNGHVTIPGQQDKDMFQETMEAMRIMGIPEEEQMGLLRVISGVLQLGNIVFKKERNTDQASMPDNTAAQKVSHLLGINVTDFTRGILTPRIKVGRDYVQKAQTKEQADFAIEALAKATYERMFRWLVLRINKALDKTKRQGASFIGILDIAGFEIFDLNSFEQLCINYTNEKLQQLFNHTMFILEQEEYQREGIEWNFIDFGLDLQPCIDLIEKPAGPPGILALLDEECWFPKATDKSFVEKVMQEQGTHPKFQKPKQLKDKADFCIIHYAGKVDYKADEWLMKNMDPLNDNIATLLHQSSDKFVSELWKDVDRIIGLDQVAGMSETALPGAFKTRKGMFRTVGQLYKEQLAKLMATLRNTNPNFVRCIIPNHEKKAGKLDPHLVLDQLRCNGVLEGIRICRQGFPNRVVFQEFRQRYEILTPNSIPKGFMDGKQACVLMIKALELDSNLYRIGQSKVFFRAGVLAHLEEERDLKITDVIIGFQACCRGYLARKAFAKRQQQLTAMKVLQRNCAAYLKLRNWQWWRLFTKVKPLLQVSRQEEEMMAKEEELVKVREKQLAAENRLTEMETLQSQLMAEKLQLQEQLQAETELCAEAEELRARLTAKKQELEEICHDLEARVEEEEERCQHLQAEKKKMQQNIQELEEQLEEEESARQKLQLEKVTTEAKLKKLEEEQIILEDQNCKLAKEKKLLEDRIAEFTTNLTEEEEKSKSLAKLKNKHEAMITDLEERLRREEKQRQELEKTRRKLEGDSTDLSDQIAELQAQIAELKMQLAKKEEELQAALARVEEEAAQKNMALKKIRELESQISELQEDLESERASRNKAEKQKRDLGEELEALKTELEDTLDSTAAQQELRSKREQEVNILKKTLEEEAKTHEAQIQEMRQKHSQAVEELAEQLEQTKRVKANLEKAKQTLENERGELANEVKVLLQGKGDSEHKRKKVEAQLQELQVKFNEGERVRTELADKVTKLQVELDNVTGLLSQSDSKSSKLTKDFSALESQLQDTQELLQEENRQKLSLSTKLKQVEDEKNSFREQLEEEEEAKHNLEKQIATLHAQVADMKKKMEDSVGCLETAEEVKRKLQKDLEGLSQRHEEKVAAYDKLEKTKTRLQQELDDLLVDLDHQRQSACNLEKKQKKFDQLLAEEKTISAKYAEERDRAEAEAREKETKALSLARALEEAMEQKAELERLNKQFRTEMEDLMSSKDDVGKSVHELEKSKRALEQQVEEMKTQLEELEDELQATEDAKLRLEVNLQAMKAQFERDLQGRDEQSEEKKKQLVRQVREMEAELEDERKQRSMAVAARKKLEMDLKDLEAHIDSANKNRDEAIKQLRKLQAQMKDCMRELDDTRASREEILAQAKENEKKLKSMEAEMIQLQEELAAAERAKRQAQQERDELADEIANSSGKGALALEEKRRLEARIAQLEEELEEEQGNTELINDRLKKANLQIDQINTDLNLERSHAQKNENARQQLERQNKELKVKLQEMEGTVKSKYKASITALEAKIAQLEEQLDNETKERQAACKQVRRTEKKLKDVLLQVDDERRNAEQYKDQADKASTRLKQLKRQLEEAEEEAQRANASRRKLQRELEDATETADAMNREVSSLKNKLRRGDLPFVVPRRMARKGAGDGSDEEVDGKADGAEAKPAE
Sequence of Non-muscle Myosin IIA ATPase (P60660 whole entry partner): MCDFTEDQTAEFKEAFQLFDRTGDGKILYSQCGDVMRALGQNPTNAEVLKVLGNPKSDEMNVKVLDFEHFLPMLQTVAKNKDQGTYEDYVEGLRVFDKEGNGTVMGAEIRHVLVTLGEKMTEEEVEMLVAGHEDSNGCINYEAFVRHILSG
Sequence of Non-muscle Myosin IIA ATPase (O14950 whole entry partner): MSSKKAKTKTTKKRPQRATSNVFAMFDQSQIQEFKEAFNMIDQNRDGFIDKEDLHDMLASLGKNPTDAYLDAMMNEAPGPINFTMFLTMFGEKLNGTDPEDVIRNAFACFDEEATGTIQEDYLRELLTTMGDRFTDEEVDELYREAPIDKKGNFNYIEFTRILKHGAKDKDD

## CN1[C@@H]2CC[C@H]1C[C@@H](OC(=O)C(CO)c1ccccc1)C2 (stereo partly shown) [atropine]
[1]
  time needed to relax the muscle strip in vitro in a tissue bath: 3 to 5 min

## Cc1ccc2c(c1)C(=O)C1(O)CCN(c3ccccc3)C1=N2 (single isomer, unassigned; (+)) [(+)-blebbistatin]
[1]
  bladder relaxation in vitro, enantiomer compared with racemic blebbistatin mixture: did not induce significant bladder relaxation

## Cc1ccc2c(c1)C(=O)[C@]1(O)CCN(c3ccccc3)C1=N2 [(−)-blebbistatin, (−)-3aS-hydroxy-6-methyl-1-phenyl-1,2,3,3a-tetrahydro-4H-pyrrolo[2,3b] quinolin-4-one]
[1]
  bladder relaxation in vitro, enantiomer compared with racemic blebbistatin mixture: equipotent
[2]
  inhibition of cardiac muscle Myosin ATPase: inhibited
[3]
  inhibition of Non-muscle Myosin ATPases: inhibited

## Cc1ccc2c(c1)C(=O)C1(O)CCN(c3ccccc3)C1=N2 (racemic) [blebbistatin, 3a-hydroxy-6-methyl-1-phenyl-1,2,3,3a-tetrahydro-4H-pyrrolo[2,3b]-quinolin-4-one]
[1]
  time needed to relax the muscle strip in vitro in a tissue bath: 30 to 60 min
[1]; 10 uM, strip pre-contracted with 1 uM carbacol
  baseline and peak phasic force of contraction (FIG. 3): significant decrease
[1]; 1 μm
  relaxation of KCl and CC evoked detrusor contraction: 20-30%
[1]; 5 μm
  relaxation of KCl and CC evoked detrusor contraction: 80-100%
[1]; dose-dependent, 1-10 μM cumulative
  relaxation of KCl and carbachol induced rat detrusor contraction (in words): completely relaxed
[4]
  attenuation of carbachol (CC) responsiveness: about 65%
[4]; listed as BLEB
  attenuation of carbachol (CC) responsiveness: about 65%
[4]; listed as racemic blebbistatin
  attenuation of carbachol (CC) responsiveness: ~65%
[4]; pre-incubation 10 μm for 30 min
  lowering of basal tone: around 300 mg
[5]
  inhibition of EFS-induced bladder contraction: about 50%
[5]; listed as racemic blebbistatin
  inhibition of EFS-induced bladder contraction: 50%
[6]; 1 μM
  relaxation of human bladder pre-contracted with endothelin-1: 60%
[6]; 3 am (so in the source)
  relaxation of human bladder pre-contracted with endothelin-1: ~100%
[6]
  relaxation/block of endothelin-1 induced human bladder contraction (in words): completely blocked
[6]; listed as Racemic blebbistatin
  relaxation/block of endothelin-1 induced human bladder contraction (in words): completely relaxed
Rat bladder strips; 10 am (so in the source)
  decrease in the amplitude of spontaneous smooth muscle contractions: ~60%
Rat bladder strips; [12]
  Amplitude of spontaneous contractions: 118 ± 19.33 mg and 120 ± 19 mg
  Basal Tone: 310 ± 16 mg
  Frequency of spontaneous contractions: 5.5 +/− 1.2 cycles/min
Bladder of awake rat; [13]
  BC (bladder capacity): 1.4 +/− 0.16 * ml
  BP (basal pressure): 6.9 +/− 1.8 cm H20
  MF (micturition frequency): 7.2 +/− 1.3 *
  MP (micturition pressure): 42 +/− 13 cmH20
  MV (micturition volume): 1.4 +/− 10 * ml
  RV (residual volume): 0.03 ± 0.01 mL
Bladder of awake rat; rat with overactive bladder (OAB), blebbistatin kept in bladder about 5 min
  decline of voiding frequency: over 50%
[7]
  IC50: 0.5 µM
[8]
  IC50: 1.2 µM
[9]
  IC50: 79.6 µM
[10]
  IC50: 5.1 µM
[11]
  block of adult mouse bladder smooth muscle contraction: did not block
Newborn mouse bladder
  inhibition of bladder contraction of a newborn mouse: did inhibit
